Measured values as given in patent US12187709B2 (Genentech, Inc., priority 2021, dated 2025).

What was measured:
[1] = biological target: Human Cbl-b (residues 40-426) (Homo sapiens (Human), UniProt Q13191); test: Cbl-b SPR assay; type: binding; conditions: for Fold of selectivity: C-cbl SPR Kd vs Cbl-b SPR Kd; for Kd: SPR, 20° C.
Outline: (§1)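 SPR, multi-cycle, 6-pt 2-fold series, blanks flanking for double referencing; capture 1300-1500 RU; contact 60 s at 40 μl/min; dissoc. 120-1200 s (~4-5 half-lives). 1:1 fit. Chaser variant: single cycle, 5 conc., top 500 nM, 120 s contact, 450 s dissociation.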

Cbl-b = Cbl-b (Homo sapiens (Human), UniProt Q13191); test: Cbl-b LCK Ub TR-FRET assay (Cbl-b Lck HTRF); type: biochemical; conditions: for IC50: Cbl-b LCK Ub TR-FRET; for fold-selectivity (Cbl-b over C-cbl) / (fold-selectivity) Cbl-b and C-Cbl Selectivity: ratio C-cbl Lck HTRF IC50 / Cbl-b Lck HTRF IC50
Cbl-b, sequence (Q13191 40-426): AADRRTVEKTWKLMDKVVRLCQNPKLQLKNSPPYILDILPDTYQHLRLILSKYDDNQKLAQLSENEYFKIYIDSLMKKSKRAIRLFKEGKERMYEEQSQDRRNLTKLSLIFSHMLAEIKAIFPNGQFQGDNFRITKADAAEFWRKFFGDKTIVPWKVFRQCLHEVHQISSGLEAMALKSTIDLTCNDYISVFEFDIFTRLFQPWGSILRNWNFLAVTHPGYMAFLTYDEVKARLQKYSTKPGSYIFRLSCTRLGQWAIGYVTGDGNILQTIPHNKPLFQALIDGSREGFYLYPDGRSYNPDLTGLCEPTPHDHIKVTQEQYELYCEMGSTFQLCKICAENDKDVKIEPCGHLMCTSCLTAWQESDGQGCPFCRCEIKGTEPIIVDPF
Outline: (§2)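 Signal is read once the detection mix has stood 20 min at ambient temperature. Curves are anchored by DMSO as maximum and by omission of LCK as minimum.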

c-Cbl = c-Cbl (Homo sapiens (Human), UniProt P22681); test: C-Cbl LCK Ub TR-FRET assay (C-cbl Lck HTRF); type: biochemical
c-Cbl, sequence (P22681 47-435): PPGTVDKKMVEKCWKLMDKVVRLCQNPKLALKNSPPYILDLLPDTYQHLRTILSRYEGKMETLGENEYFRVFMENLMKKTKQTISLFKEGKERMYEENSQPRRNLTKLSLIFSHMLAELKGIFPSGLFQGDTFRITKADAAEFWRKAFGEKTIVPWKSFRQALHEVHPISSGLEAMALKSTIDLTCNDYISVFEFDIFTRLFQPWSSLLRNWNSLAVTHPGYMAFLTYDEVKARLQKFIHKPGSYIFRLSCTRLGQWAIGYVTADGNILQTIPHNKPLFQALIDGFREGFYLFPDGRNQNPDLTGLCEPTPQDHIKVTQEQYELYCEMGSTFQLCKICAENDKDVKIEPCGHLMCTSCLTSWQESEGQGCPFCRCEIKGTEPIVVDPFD
Outline: as §2

c-Cbl (residues 47-435) = c-Cbl (residues 47-435) (Homo sapiens (Human), UniProt P22681); test: c-Cbl SPR assay; type: binding; conditions: 20° C.
c-Cbl (residues 47-435), sequence (P22681 47-435): as above
Outline: as §1

Human Cbl-b (residues 40-426), sequence (Q13191 40-426): as the sequence (Q13191 40-426) above

Compound | Fold of selectivity [1] [×] | Kd [1] [nM] | IC50 (Cbl-b) [nM] | fold-selectivity (Cbl-b over C-cbl) (Cbl-b) | IC50 (c-Cbl) [nM] | Kd (c-Cbl (residues 47-435)) [nM] | IC50 (Cbl-b; Example 121) [nM] | (fold-selectivity) Cbl-b and C-Cbl Selectivity (Cbl-b) [x]
Cn1cnnc1C1(c2cccc(N3Cc4c(cc(CNC5(C)CCC5)cc4C(F)(F)F)C3=O)c2)CSC1.O=CO [Compound 329, 2-(3-(3-(4-methyl-4H-1,2,4-triazol-3-yl)thietan-3-yl)phenyl)-6-(((1-methylcyclobutyl)amino)methyl)-4-(trifluoromethyl)isoindolin-1-one formate] | 5.7 | 3.2 | 11 | 1.8x | 19 | 19 | – | –
Cn1cnnc1[C@]1(c2cccc(N3Cc4c(cc(CNC5(C)CCC5)cc4C(F)(F)F)C3=O)c2)C[C@]2(CCCO2)C1 [Compound 340, 2-(3-((2s, 4r)-2-(4-methyl-4H-1,2,4-triazol-3-yl)-5-oxaspiro[3.4]octan-2-yl)phenyl)-6-(((1-methylcyclobutyl)amino)methyl)-4-(trifluoromethyl) isoindolin-1-one] | 24 | 82 | 110 | 10x | 1100 | 1900 | – | –
C[C@@H](c1cccc(N2Cc3c(cc(CNC4(C)CCC4)cc3C(F)(F)F)C2=O)c1)c1nncn1C (single isomer, unassigned) [Compound 171, 2-(3-(1-(4-methyl-4H-1,2,4-triazol-3-yl)ethyl)phenyl)-6-(((1-methylcyclobutyl)amino)methyl)-4-(trifluoromethyl)isoindolin-1-one] | 2.1 | 800 | 1100 | 2.0x | 2300 | 1700 | – | –
CO[C@H]1C[C@](c2cccc(N3Cc4c(cc(CNC5COC5)cc4C(F)(F)F)C3=O)c2)(c2nncn2C)C1 [Compound 476, 2-(3-((1r,3r)-3-methoxy-1-(4-methyl-4H-1,2,4-triazol-3-yl)cyclobutyl)phenyl)-6-((oxetan-3-ylamino)methyl)-4-(trifluoromethyl)isoindolin-1-one] | 11 | 95 | – | – | 570 | 1100 | 82 | 7.1
Cn1cnnc1[C@H](c1cccc(N2Cc3c(cc(CNC4(C)CCC4)cc3C(F)F)C2=O)c1)C1CC(F)C1 (stereo partly drawn) [Compound 461, 4-(difluoromethyl)-2-(3-((S)-((1s,3R)-3-fluorocyclobutyl)(4-methyl-4H-1,2,4-triazol-3-yl)methyl)phenyl)-6-(((1-methylcyclobutyl)amino)methyl)isoindolin-1-one] | 18 | 190 | – | – | 3200 | 3400 | 360 | 8.8
CCCN1CC(c2cc3c(c(C(F)(F)F)c2)CN(c2cccc([C@H](c4nncn4C)C4COC4)c2)C3=O)C1 [Compound 386, (R)-2-(3-((4-methyl-4H-1,2,4-triazol-3-yl)(oxetan-3-yl)methyl)phenyl)-6-(1-propylazetidin-3-yl)-4-(trifluoromethyl)isoindolin-1-one] | 2.4 | 110 | 110 | 2.6x | 290 | 320 | – | –
Cn1cnnc1C(c1cccc(N2Cc3c(cc(CNC4(C)CCC4)cc3C(F)(F)F)C2=O)c1)[C@H]1C[C@H](Cl)C1 (single isomer, unassigned) [Compound 356] | 11 | 19 | 29 | 6.1x | 180 | 210 | – | –
CCc1cc(N2Cc3c(cc(CNC4(C)CCC4)cc3C(F)(F)F)C2=O)cc([C@]2(c3nncn3C)C[C@@H](OC)C2)c1 [Compound 235, 2-(3-ethyl-5-((1s,3s)-3-methoxy-1-(4-methyl-4H-1,2,4-triazol-3-yl)cyclobutyl)phenyl)-6-(((1-methylcyclobutyl)amino)methyl)-4-(trifluoromethyl)isoindolin-1-one] | 2.9 | 36 | 78 | 1.4x | 110 | 110 | – | –
Cn1cnnc1[C@@](C)(O)c1cccc(N2Cc3c(cc(CNC4(C)CCC4)cc3C(F)(F)F)C2=O)c1 [Compound 306, (S)-2-(3-(1-hydroxy-1-(4-methyl-4H-1,2,4-triazol-3-yl)ethyl)phenyl)-6-(((1-methylcyclobutyl)amino)methyl)-4-(trifluoromethyl)isoindolin-1-one] | 2.0 | 140 | 140 | 1.6x | 230 | 280 | – | –
CO[C@H]1C[C@](c2cccc(N3Cc4c(cc(CNC[C@@H]5[C@@H](C)C5(F)F)cc4C(F)(F)F)C3=O)c2)(c2nncn2C)C1 [Compound 503, 6-(((((1S,3R)-2,2-difluoro-3-methylcyclopropyl)methyl)amino)methyl)-2-(3-((1r,3S)-3-methoxy-1-(4-methyl-4H-1,2,4-triazol-3-yl)cyclobutyl)phenyl)-4-(trifluoromethyl)isoindolin-1-one] | 22 | 2 | – | – | 26 | 44 | 8.5 | 3.0
CO[C@H]1C[C@](c2cccc(N3Cc4c(cc(CN[C@@H](C)C5CCC5)cc4C(F)(F)F)C3=O)c2)(c2nncn2C)C1 [Compound 470, 6-((((S)-1-cyclobutylethyl)amino)methyl)-2-(3-((1r,3S)-3-methoxy-1-(4-methyl-4H-1,2,4-triazol-3-yl)cyclobutyl)phenyl)-4-(trifluoromethyl)isoindolin-1-one] | 2.9 | 0.35 | – | – | 4.5 | 1.5 | 4.4 | 1.0
CC(C)[C@H]1CN(C)CCN1Cc1cc2c(c(C(F)(F)F)c1)CN(c1cc([C@]3(c4nncn4C)C[C@@H](C)C3)cc(OC3CCCC3)n1)C2=O [Compound 72, 2-(6-(cyclopentyloxy)-4-((1S,3R)-3-methyl-1-(4-methyl-4H-1,2,4-triazol-3-y)cyclobutyl)pyridin-2-yl)-6-(((S)-2-isopropyl-4-methylpiperazin-1-yl)methyl)-4-(trifluoromethyl)isoindolin-1-one] | 4.5 | 0.4 | 2400 | (2.4x) | 5300 | 1.8 | – | –
C[C@@H](NC1(C)CCC1)c1cc(Cl)c2c(c1)C(=O)N(c1cccc([C@]3(c4nncn4C)C[C@@H](F)C3)c1)C2 (single isomer, unassigned) [Compound 288] | 3.5 | 0.1 | 5.3 | 0.92x | 4.9 | 0.35 | – | –
CC[C@@H](c1cccc(N2Cc3c(Cl)cc(CNC4(C)CCC4)cc3C2=O)c1)c1nncn1C (single isomer, unassigned) [Compound 359] | 2.1 | 0.4 | 4.8 | 0.85x | 4.1 | 0.82 | – | –
